Reference: patent publication US7943646B2, “Benzamidine derivative, process for the preparation thereof and pharmaceutical composition comprising same” (Dong Wha Pharmaceutical Co., Ltd., priority 2006, dated 2011)
Read-outs that look alike come from different tables or passages of the source.

Columns and labels:
[1] = tested on: osteoclast differentiation; assay: Inhibitory effect on osteoclast differentiation, co-culture of bone marrow cells and osteoblast, TRAP staining; format: cell-based, mouse; settings: for inhibition at 1 µM: Mus musculus, Osteoclast, 168 h, read-out: inhibitory effect on osteoclast differentiation(%)
Method: The effect of the benzamidine derivative of the present invention on osteoclast formation and differentiation process was evaluated via co-culture with an osteoblast.
Tibia was aseptically ectomized from male 6 to 8-week-old ddY mice to harvest bone marrow cells by using a syringe (21G, Korea Green Cross). The bone marrow cells were suspended in 5 mL of an α-MEM medium (Gibco BRL Co., added with sodium bicarbonate (2.0 g/L), streptomycin (100 mg/L) and penicillin ([…]), filtered and then sterilized). The harvested cells were centrifuged at 600×g for 5 mins to collect the whole quantity. To remove the red blood cells in the bone marrow cells, 3 mL of Tris HCl (0.83% NH4Cl, pH 7.5) was added and well mixed. After centrifuging above cells, the numbers of the eukaryotic cells in the harvested bone marrow cells were counted and then immediately used for a co-culture system.
The progenitor bone and the parietal bone were aseptically ectomized from 1 to 2-day-old neonate ICR mice, washed with a phosphate butter solution (PBS) and treated with a mixed enzyme solution (of 0.2% collagenase and 0.1% dispase) sequentially (10, 10, 10, 20, 20 and 20 min), and then 3 to 6 groups of the cells which comprise lot of cells having the characteristics of the osteoblast were intensively collected and washed with a medium (a serum-free α-MEM). The washed cells were cultured in the α-MEM medium containing 10% FBS for 2 to 3 days. After subculturing, the collected cells were used for this experiment, and diluted to a concentration of 1×10^6 cells/mL for storage at −70[…].
The benzamidine derivative of the present invention was dissolved in a sterile distilled water or ethanol to dilute to a desired concentration. The final volume of the sample added to the cell culture medium was set at a ratio of 1:1000.
The bone marrow cells prepared in the above 1-1 and the osteoblast were co-cultured for osteoclast differentiation. Both the bone marrow cells (25,000 cells/cm^2) and the osteoblast (10,000 cells/cm^2) were plated in a 96-well plate using α-MEM medium containing FBS, and then cultured with the samples to be tested for 7 days. Differentiation factors, such as dexamethasone (10^−7 M) and vitamin D3 (10^−8 M), were also co-added to the medium from the first day of cultivation. The medium was changed with a fresh media containing a mixture of the samples and the differentiation factors every 2 to 3 days.
TRAP was used as a marker to measure the matured osteoclast in consideration of its characteristics showing a positive reaction to a TRAP staining solution. The TRAP staining solution was prepared in such the manner that 5 mg of naphtol AS-MS phosphate (sigma N-4875) as a substrate, and 25 mg of a coloring agent (Fast Red Violet LB salt) were dissolved in N,N-dimethylformamide (about 0.5 mL). 50 ml of a 0.1 N NaHCO3 buffer solution containing 50 mM tartaric acid (pH 5.0) was added thereto, and the mixture was stored at a refrigerator prior to use as a staining solution.
After culturing the cells for 7 days, the medium was removed from the wells, the cells were once washed with PBS, and then fixed with PBS containing 10% formalin for 2 to 5 min. The cells were fixed again in a mixed solution of ethanol and acetone (1/1) for about 1 min, and dried off. The cells were further treated by the TRAP staining solution for 15 mins and washed with water and dried off. The osteoclasts with 3 or more nuclei showing a TRAP-positive reaction were counted under a microscopic examination. Each of tests was confirmed over at least three times. The inhibitory effect on osteoclast differentiation of each experimental group, relative to negative controls, was expressed as a percentage (%).

MC3T3 = assay: Cytotoxicity test (MTT), MC3T3; format: cell-based; settings: 10^−6M, 72 hrs, in comparison with the control group
Method: (§1) The cytotoxic effect of the benzamidine derivative of the present invention was evaluated by carrying out the experiment described below.
(§2) The test substance was diluted in an appropriate solvent at a 10^−2 M concentration. This substance was diluted in an appropriate culture medium for the cells used in the cytotoxicity test to a concentration of […], and loaded into a 96-well plate in 100 μl per well. The cell lines to be used in the cytotoxicity test were plated on a 96-well plate in a dose of 1.0×10^4 cells/1OO μl per well and cultured for 72 hrs. 25 μl of MTT [3-(4,5-dimethyl-2-thiazolyl)-2,5-diphenyl-2H-tetrazolium bromide] dissolved in PBS (2 mg/mL) were added before 4 hrs of the end of culture. After completion of the reaction, the plates were centrifuged, the medium was discarded and 100 μl of DMSO was added to dissolve formazan. Finally, the absorbance of the developed plates was measured at 540 nm. The survival rates of the cells were expressed as % concentration values in comparison with the control group.

calvaria = assay: Cytotoxicity test (MTT), calvaria; format: cell-based; settings: 10^−6M, 72 hrs, in comparison with the control group
Method: as §1, §2

HOS = assay: Cytotoxicity test (MTT), HOS; format: cell-based; settings: 10^−6M, 72 hrs, in comparison with the control group
Method: as §1, §2

[2] = 1 μm, 7 days co-culture, TRAP-positive osteoclasts with 3 or more nuclei, relative to negative controls

Compound | survival rates of the cells (MC3T3) [%] | survival rates of the cells (calvaria) [%] | survival rates of the cells (HOS) [%] | inhibition at 1 µM [1, 2] [%] | further results
CC(C)c1nc(-c2ccc(OCCCCCOc3ccc(C(=N)NO)cc3)cc2)c(CCNCCCn2ccnc2)s1 [Example 31, N-hydroxy-4-[5-(4-{5-[2-(3-imidazol-1-yl-propylamino)-ethyl]-2-isopropyl-thiazol-4-yl}-phenoxy)-pentyloxy]-benzamidine] | – | – | – | – | inhibition at 1 µM [1]: 97%
CC(C)c1nc(-c2ccc(OCCCCCOc3ccc(C(=N)NO)cc3)cc2)c(CCN2CCSCC2)s1 [Example 32, N-hydroxy-4-(5-{4-[2-isopropyl-5-(2-thiomorpholin-4-yl-ethyl)-thiazol-4-yl]-phenoxy}-pentyloxy)-benzamidine] | – | – | – | – | inhibition at 1 µM [1]: 97%
CN1CCN(CCc2sc(C3CCCCC3)nc2-c2ccc(OCCCCCOc3ccc(C(=N)NO)cc3)cc2)CC1 [Example 34, N-hydroxy-4-[5-(4-{2-cyclohexyl-5-[2-(4-methyl-piperazin-1-yl)-ethyl]-thiazol-4-yl}-phenoxy)-pentyloxy]-benzamidine] | – | – | – | – | inhibition at 1 µM [1]: 100%
Cc1nc(-c2ccc(OCCCCOc3ccc(C(=N)NO)cc3)cc2)c(CCN2CCOCC2)s1 [Example 44, N-hydroxy-4-(4-{4-[2-methyl-5-(2-morpholin-4-yl-ethyl)-thiazol-4-yl]-phenoxy}-butoxy)-benzamidine] | 101.3 | 90.6 | 105.6 | – | –
N=C(N)c1ccc(OCCCCCOc2ccc(-c3nc(C4CCCCC4)sc3CCN3CCOCC3)cc2)cc1 [Example 45, 4-(5-{4-[2-cyclohexyl-5-(2-morpholin-4-yl-ethyl)-thiazol-4-yl]-phenoxy}-pentyloxy)-benzamidine] | 108.2 | 90.5 | 106.9 | – | –
CNc1nc(-c2ccc(OCCCCCOc3ccc(C(=N)NO)cc3)cc2)c(CCN2CCN(C)CC2)s1 [Example 48, N-hydroxy-4-[5-(4-{2-methylamino-5-[2-(4-methyl-piperazin-1-yl)-ethyl]-thiazol-4-yl}-phenoxy)-pentyloxy]-benzamidine] | – | – | – | 60.6 | –
CNc1nc(-c2ccc(OCCCCCOc3ccc(C(=N)NO)cc3)cc2)c(CCN2CCSCC2)s1 [Example 49, N-hydroxy-4-(5-{4-[2-methylamino-5-(2-thiomorpholin-4-yl-ethyl)-thiazol-4-yl]-phenoxy}-pentyloxy)-benzamidine] | – | – | – | 84 | –
CNc1nc(-c2ccc(OCCCCCOc3ccc(C(=N)N)cc3)cc2)c(CCN2CCOCC2)s1 [Example 52, 4-(5-{4-[2-methylamino-5-(2-morpholin-4-yl-ethyl)-thiazol-4-yl]-phenoxy}-pentyloxy)-benzamidine] | 115.6 | 100.1 | 98.8 | – | –
CN(C)c1nc(-c2ccc(OCCCCCOc3ccc(C(=N)NO)cc3)cc2)c(CCN2CCSCC2)s1 [Example 54, N-hydroxy-4-(5-{4-[2-dimethylamino-5-(2-thiomorpholin-4-yl-ethyl)-thiazol-4-yl]-phenoxy}-pentyloxy)-benzamidine] | – | – | – | 88 | –
CC(C)C(=O)N(C)c1nc(-c2ccc(OCCCCCOc3ccc(C(=N)NO)cc3)cc2)c(CCN2CCOCC2)s1 [Example 55, N-hydroxy-4-(5-{4-[2-(isobutyryl-methyl-amino)-5-(2-morpholin-4-yl-ethyl)-thiazol-4-yl]-phenoxy}-pentyloxy)-benzamidine] | – | – | – | 69 | –
N=C(NO)c1ccc(OCCCCCOc2ccc(-c3nc(N4CCOCC4)sc3CCN3CCSCC3)cc2)cc1 [Example 60, N-hydroxy-4-(5-{4-[2-morpholin-4-yl-5-(2-thiomorpholin-4-yl-ethyl)-thiazol-4-yl]-phenoxy}-pentyloxy)-benzamidine] | – | – | – | 88 | –
CN1CCN(CCc2sc(N3CCOCC3)nc2-c2ccc(OCCCCCOc3ccc(C(=N)NO)cc3)cc2)CC1 [Example 61, N-hydroxy-4-[5-(4-{5-[2-(4-methyl-piperazin-1-yl)-ethyl]-2-morpholin-4-yl-thiazol-4-yl}-phenoxy)-pentyloxy]-benzamidine] | – | – | – | 76 | –
N=C(N)c1ccc(OCCCCCOc2ccc(-c3nc(N4CCOCC4)sc3CCN3CCOCC3)cc2)cc1 [Example 64, 4-(5-{4-[2-morpholin-4-yl-5-(2-morpholin-4-yl-ethyl)-thiazol-4-yl]-phenoxy}-pentyloxy)-benzamidine] | 119.8 | 99.4 | 107.8 | – | –
Cc1nc(-c2ccc(OCCCCCOc3ccc(C(=N)NO)cc3)cc2)c(CCN(CC(C)C)C(=O)c2cccnc2)s1 [Example 66, N-hydroxy-4-{5-[4-(5-{2-[isobutyl-(pyridine-3-carbonyl)-amino]-ethyl}-2-methyl-thiazol-4-yl)-phenoxy]-pentyloxy}-benzamidine] | 111.1 | 99.0 | 105.9 | – | –
CC(C)c1nc(-c2ccc(OCCCCCOc3ccc(C(=N)NO)cc3)cc2)c(CCN(C(=O)c2ccncc2)C2CC2)s1 [Example 67, N-hydroxy-4-{5-[4-(5-{2-[cyclopropyl-(pyridine-4-carbonyl)-amino]-ethyl}-2-isopropyl-thiazol-4-yl)-phenoxy]-pentyloxy}-benzamidine] | 80.7 | 95.3 | 97.5 | – | –
CNC(=O)c1sc(C)nc1-c1ccc(OCCCCCOc2ccc(C(=N)NO)cc2)cc1 [Example 69] | – | – | – | – | inhibitory effect on osteoclast differentiation(%) [1, 2]: 90.3%
Cc1nc(-c2ccc(OCCCCCOc3ccc(C(=N)NO)cc3)cc2)c(C(=O)NC(C)C)s1 [Example 70, N-hydroxy-4-{5-[4-(5-isopropylcarbamoyl-2-methyl-thiazol-4-yl)-phenoxy]-pentyloxy}-benzamidine] | – | – | – | 84.8 | –
Cc1nc(-c2ccc(OCCCCCOc3ccc(C(=N)NO)cc3)cc2)c(C(=O)NCCCn2ccnc2)s1 [Example 71, N-hydroxy-4-{5-[4-(5-{3-imidazol-1-yl-propylcarbamoyl}-2-methyl-thiazol-4-yl)-phenoxy]-pentyloxy}-benzamidine] | – | – | – | 90.4 | –
N-hydroxy-(5-{4-[5-(2-isobutyrylamino-ethyl)-2-methyl-thiazol-4-yl]-phenoxy}-pentyloxy)-benzamidine [Example 65] | – | – | – | – | inhibitory effect on osteoclast differentiation(%) [1, 2]: 29%
